Publication PMC11551755, “Structure-based discovery of first inhibitors targeting the helicase activity of human PIF1” (Nucleic Acids Research, 2024)

Target: T1, FLhPIF1 (Homo sapiens, UniProt Q9H611)
T1 construct: Full length human PIF1 (FLhPIF1) was expressed and purified as a His-SUMO fusion; His-SUMO (cleaved yes); made in house; 'following similar protocols' to hPIF1HD (ArcticExpress BL21(DE3) E. coli)
T1 sequence (Q9H611 1-641): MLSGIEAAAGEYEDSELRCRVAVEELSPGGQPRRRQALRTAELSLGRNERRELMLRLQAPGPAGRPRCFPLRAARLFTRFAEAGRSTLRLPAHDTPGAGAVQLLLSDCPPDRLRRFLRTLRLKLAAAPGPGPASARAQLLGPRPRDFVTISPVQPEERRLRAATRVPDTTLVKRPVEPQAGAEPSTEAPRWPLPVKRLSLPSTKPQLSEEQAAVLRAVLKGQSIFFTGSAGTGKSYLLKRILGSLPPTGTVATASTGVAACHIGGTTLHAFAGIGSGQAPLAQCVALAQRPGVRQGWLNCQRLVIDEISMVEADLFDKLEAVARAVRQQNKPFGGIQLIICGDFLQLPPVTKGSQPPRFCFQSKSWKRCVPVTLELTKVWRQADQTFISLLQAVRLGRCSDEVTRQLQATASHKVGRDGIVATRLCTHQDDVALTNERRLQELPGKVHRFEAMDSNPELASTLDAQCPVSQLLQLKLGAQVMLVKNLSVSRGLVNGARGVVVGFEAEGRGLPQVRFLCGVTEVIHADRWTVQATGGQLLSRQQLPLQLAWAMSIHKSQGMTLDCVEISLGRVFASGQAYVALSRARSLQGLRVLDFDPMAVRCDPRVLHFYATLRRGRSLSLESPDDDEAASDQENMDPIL
Experiment: helicase assay after pre-incubation of SMI with FLhPIF1
Type: biochemical
Settings: for pre-incubation time-course, inhibition of unwinding: 0–3 h pre-incubation, 100 nM FLhPIF1, 100 μM SMI, n = 4; for effect of pre-incubation on inhibition of unwinding: 100 μM SMI with 100 nM FLhPIF1, 1 h at 22°C, then 1:10 dilution, compared to no pre-incubation; for IC50: 2 h pre-incubation at 22°C with 100 nM FLhPIF1, then 1:10 dilution into helicase assay, read-out: IC50 for dsDNA unwinding by FLhPIF1 following pre-incubation
Experimental: Helicase activity was assayed using a radiometric strand displacement assay employing a partially single- and double-stranded substrate generated by annealing two oligonucleotides: 5′-(T)55-[…] and 5′-[…], as described previously ([19],[28]). The reaction buffer was 20 mM HEPES–NaOH pH 7.5, 20 mM NaCl, 5.5 mM MgCl2, 5 mM ATP, 1 mM DTT and 0.1 mg/ml BSA. SMIs (100 mM stocks in DMSO) were assayed at up to 2 mM without pre-incubation with FLhPIF1, unless otherwise stated. Reactions (0.1 nM substrate) were incubated at 37°C for 20 min, followed by addition of 0.2 volumes of 120 mM EDTA, 0.6% (w/v) SDS, 60% (v/v) glycerol and 0.1% (w/v) bromophenol blue before resolution of products by polyacrylamide gel electrophoresis (8%, 19:1 acrylamide:bis-acrylamide), 1× TBE (90 mM Tris–borate/2 mM EDTA, pH 8.3 with 0.05% (w/v) SDS buffer). Dried gels were exposed to phosphorimaging plates (Fujifilm) for imaging and quantification (Fuji FLA3000, image gauge V3.3 software). IC50 values were analysed by non-linear regression (variable slope) using GraphPad Prism.
First, we screened inhibitory activity of the SMIs listed in Table 1, following incubation of 100 nM FLhPIF1 with 100 μM SMI for 1 h at 22°C in the absence of substrates (ATP and DNA), before a 1:10 dilution into helicase reactions. […] Next, compounds 2, 5, 6 and 11, along with 4 and 1D were selected for analysis in a pre-incubation time-course (100 nM FLhPIF1, 100 μM SMI), up to 3 h before assaying helicase activity.
In parallel, IC50 values for inhibition of human UPF1 (hUPF1) helicase activity by the SMIs were also determined under the same conditions. UPF1-like SF1B helicases are the most closely related family of helicases to PIF1, with significant structural and mechanistic similarity ([52]).
Figure 6. SMI IC50 for dsDNA unwinding determined following pre-incubation. SMIs (0.0078–2 mM SMI) were incubated for 2 h at 22°C (100 nM FLhPIF1 or hUPF1) before dilution (1:10) in the standard helicase assay (0.1 nM DNA substrate). For 1D and 6, structures, electrophoresis of FLhPIF1 reaction product and graphs for IC50 value determination are shown. The graphed data include the activity of SMIs towards hUPF1 and IC50 values obtained are given. See Supplementary Figure S14 for the complete data set. TEXT PRINTED IN THE PICTURE: 1D: IC50 (μM): PIF1: 978 ± 221; IC50 (μM): UPF1: N.D. | 6: IC50 (μM): PIF1: 79.4 ± 16; IC50 (μM): UPF1: 1750 ± 426

SMILES	pre-incubation time-course, inhibition of unwinding	effect of pre-incubation on inhibition of unwinding	IC50 [µM]
N#Cc1ccc(-c2csc(N)n2)cc1 [Compound 5]	increasing inhibition with increasing time of pre-incubation	significantly enhanced inhibitory activity	67.4 ± 20
CC(=O)c1ccc(-c2csc(N)n2)cc1 [Compound 2]	increasing inhibition with increasing time of pre-incubation	significantly enhanced inhibitory activity	65 ± 25
CC(=O)Nc1ccc(-c2csc(N)n2)cc1C1=CCNCC1 [Compound 11]	increasing inhibition with increasing time of pre-incubation	significantly enhanced inhibitory activity	109 ± 47
CC(=O)Nc1ccc(-c2csc(N)n2)cc1-c1ccc(C)cc1 [Compound 10]		significantly enhanced inhibitory activity	
Nc1nc(-c2ccc(C(=O)c3ccccc3)cc2)cs1 [Compound 6]	increasing inhibition with increasing time of pre-incubation	significantly enhanced inhibitory activity	79.4 ± 16
